Measured values taken from patent EP0318056A2, “Novel antibiotics and process for preparing the same” (MEIJI SEIKA KAISHA LTD., priority 1987, dated 1989).
In brackets after ≈: the same amount, converted by molar mass.

Columns and labels:
KB = test: Cytotoxicity on tumor cells; format: cell-based; settings: human nasopharynx, 37°C, 72 hours, 5% CO₂, probit method, read-out: IC₅₀
PC13 = test: Cytotoxicity on tumor cells; format: cell-based; settings: PC-13; PC13, human lung cancer; 37°C, 72 hours, 5% CO₂; probit method; read-out: IC₅₀
Meth-A = test: Cytotoxicity on tumor cells; format: cell-based; settings: mouse fibrosarcoma, 37°C, 72 hours, 5% CO₂, probit method, read-out: IC₅₀
[1] = mice, dose of 200 mg/kg (i.p.)
HL-60 = test: Cytotoxicity on tumor cells; format: cell-based; settings: HL-60, human leukemia; 37°C, 72 hours, 5% CO₂; probit method; read-out: IC₅₀
PC10 = test: Cytotoxicity on tumor cells; format: cell-based; settings: PC10, human lung cancer; 37°C, 72 hours, 5% CO₂; probit method; read-out: IC₅₀
K562 = test: Cytotoxicity on tumor cells; format: cell-based; settings: K562, human leukaemia; 37°C, 72 hours, 5% CO₂; probit method; read-out: IC₅₀
PC14 = test: Cytotoxicity on tumor cells; format: cell-based; settings: PC-14; PC14, human lung cancer; 37°C, 72 hours, 5% CO₂; probit method; read-out: IC₅₀
L-1210 = test: Cytotoxicity on tumor cells; format: cell-based; settings: L1210; L-1210, mouse leukemia; 37°C, 72 hours, 5% CO₂; probit method; read-out: IC₅₀
P-388 = test: Cytotoxicity on tumor cells; format: cell-based; settings: P388; P-388, mouse leukemia; 37°C, 72 hours, 5% CO₂; probit method; read-out: IC₅₀
B16 = test: Cytotoxicity on tumor cells; format: cell-based; settings: B16, mouse melanoma; 37°C, 72 hours, 5% CO₂; probit method; read-out: IC₅₀
HMV-1 = test: Cytotoxicity on tumor cells; format: cell-based; settings: HMV-1, human melanoma; 37°C, 72 hours, 5% CO₂; probit method; read-out: IC₅₀
[2] = system: Bacillus anthracis No. 119; test: microbe, parasite or virus in culture; format: cell-based; settings: NO.119, read-out: Minimum Inhibitory Concn.
[3] = qualitative, in the named solvents
in vivo = settings: mouse, ip
[4] = system: Klebsiella pneumoniae 22 #3038; test: Antimicrobial activity, serial dilution method on agar plate; format: cell-based; settings: read-out: Minimum Inhibitory Concn.
Description: (§1) The antimicrobial activity of SF2582 A and B on various test microorganisms shown in Table 2 below were determined by the serial dilution method on agar plate, and the minimum inhibitory concentrations (µg/ml) obtained are shown in Table 2 below.

[5] = system: Staphylococcus aureus Smith S-424; test: as above; format: cell-based; settings: SMITHS424, read-out: Minimum Inhibitory Concn.
Description: as §1

[6] = system: Staphylococcus epidermidis 109; test: as above; format: cell-based; settings: read-out: Minimum Inhibitory Concn.
Description: as §1

[7] = system: Staphylococcus epidermidis ATCC 14990; test: as above; format: cell-based; settings: ATCC14990, read-out: Minimum Inhibitory Concn.
Description: as §1

Escherichia coli JC-2 = test: as above; format: cell-based; settings: JC2, read-out: Minimum Inhibitory Concn.
Description: as §1

[8] = system: Providencia rettgeri J-0026; test: as above; format: cell-based; settings: J0026, read-out: Minimum Inhibitory Concn.
Description: as §1

Salmonella sp. D-0001 = test: as above; format: cell-based; settings: SP.D0001, read-out: Minimum Inhibitory Concn.
Description: as §1

[9] = system: Salmonella typhimurium LT-2; test: as above; format: cell-based; settings: Salmonella enterica, read-out: Minimum Inhibitory Concn.
Description: as §1

Salmonella typhi O-901-W = test: as above; format: cell-based; settings: Salmonella enterica, read-out: Minimum Inhibitory Concn.
Description: as §1

[10] = system: Pseudomonas aeruginosa MB-3829; test: as above; format: cell-based; settings: MB3829, read-out: Minimum Inhibitory Concn.
Description: as §1

Proteus mirabilis GN 310 = test: as above; format: cell-based; settings: GN310, read-out: Minimum Inhibitory Concn.
Description: as §1

[11] = system: Salmonella enteritidis No. 11; test: as above; format: cell-based; settings: Salmonella enterica, read-out: Minimum Inhibitory Concn.
Description: as §1

[12] = system: Escherichia coli JR 661 W/677; test: as above; format: cell-based; settings: JR661W/677, read-out: Minimum Inhibitory Concn.
Description: as §1

Proteus vulgaris OX 19 = test: as above; format: cell-based; settings: OX19, read-out: Minimum Inhibitory Concn.
Description: as §1

[13] = system: Manthomonas maltophilia M-0627; test: as above; format: cell-based; settings: read-out: Minimum Inhibitory Concn.
Description: as §1

[14] = system: Enterococcus faecalis ATCC 8043; test: as above; format: cell-based; settings: ATCC8043, read-out: Minimum Inhibitory Concn.
Description: as §1

[15] = system: Klebsiella pneumoniae PCI 602; test: as above; format: cell-based; settings: PCI602, read-out: Minimum Inhibitory Concn.
Description: as §1

Escherichia coli No. 29 = test: as above; format: cell-based; settings: read-out: Minimum Inhibitory Concn.
Description: as §1

Morganella morganii Kono = test: as above; format: cell-based; settings: read-out: Minimum Inhibitory Concn.
Description: as §1

[16] = system: Escherichia coli W 3630 RGN 823; test: as above; format: cell-based; settings: W3630RGN823, read-out: Minimum Inhibitory Concn.
Description: as §1

[17] = system: Shigella sonnei EW 33 Type 1; test: as above; format: cell-based; settings: EW33TYPE1, read-out: Minimum Inhibitory Concn.
Description: as §1

[18] = system: Staphylococcus aureus No. 26; test: as above; format: cell-based; settings: read-out: Minimum Inhibitory Concn.
Description: as §1

[19] = system: Serratia marcescens MB-3848; test: as above; format: cell-based; settings: MB3848, read-out: Minimum Inhibitory Concn.
Description: as §1

[20] = system: Staphylococcus aureus 209P JC-1; test: as above; format: cell-based; settings: read-out: Minimum Inhibitory Concn.
Description: as §1

[21] = system: Citrobacter freundii GN 346; test: as above; format: cell-based; settings: GN346, read-out: Minimum Inhibitory Concn.
Description: as §1

P-388 tumor cells = test: Antitumor activity in mice intraperitoneally implanted with P-388 tumor cells; format: in vivo; settings: P-388 mice

Row | Compound | MIC [2] [µg/mL] | Solubility [3] | LD50 at 336 h (in vivo) [mg/kg] | MIC [4] [µg/mL] | MIC [5] [µg/mL] | MIC [6] [µg/mL] | MIC [7] [µg/mL] | MIC (Escherichia coli JC-2) [µg/mL] | MIC [8] [µg/mL] | MIC (Salmonella sp. D-0001) [µg/mL] | MIC [9] [µg/mL] | MIC (Salmonella typhi O-901-W) [µg/mL] | MIC [10] [µg/mL] | MIC (Proteus mirabilis GN 310) [µg/mL] | MIC [11] [µg/mL] | MIC [12] [µg/mL] | MIC (Proteus vulgaris OX 19) [µg/mL] | MIC [13] [µg/mL] | MIC [14] [µg/mL] | MIC [15] [µg/mL] | further results
1 | COC(=O)C1(C)Nc2c(O)cc3c(c2C1=O)C(CO)CN3C(=O)c1cc2cc(OC)c(OC)c(OC)c2[nH]1 (stereo not shown) | – | – | – | – | – | – | – | – | – | – | – | – | – | – | – | – | – | – | – | – | IC50 (KB): 18 µg/mL (≈ 34.3 µM); IC50 (PC13): 39.5 µg/mL (≈ 75.2 µM); IC50 (Meth-A): 42 µg/mL (≈ 79.9 µM); death in acute toxicity test [1]: no case of death; IC50 (HL-60): 31.5 µg/mL (≈ 59.9 µM); IC50 (PC10): 14.1 µg/mL (≈ 26.8 µM); IC50 (K562): 35.6 µg/mL (≈ 67.7 µM); IC50 (PC14): > 50 µg/mL; IC50 (L-1210): 1.3 µg/mL (≈ 2.47 µM); IC50 (P-388): 9.4 µg/mL (≈ 17.9 µM); IC50 (B16): 5.1 µg/mL (≈ 9.7 µM); IC50 (HMV-1): 12.1 µg/mL (≈ 23 µM)
2 | COC(=O)C1(C)Nc2c(O)cc3c(c2C1=O)C(CCl)CN3C(=O)c1cc2cc(OC)c(OC)c(OC)c2[nH]1 (stereo not shown) [SF2582 A] | 0.05 (≈ 0.0919 µM) | soluble in methanol, ethyl acetate, acetone, chloroform, or dimethyl sufoxide; insoluble in water or haxane | 0.25 to 1 | 25 (≈ 46 µM) | < 0.025 | < 0.025 | 0.05 (≈ 0.0919 µM) | 12.5 (≈ 23 µM) | 25 (≈ 46 µM) | 12.5 (≈ 23 µM) | 12.5 (≈ 23 µM) | 3.13 (≈ 5.75 µM) | 25 (≈ 46 µM) | 25 (≈ 46 µM) | 0.78 (≈ 1.43 µM) | 12.5 (≈ 23 µM) | > 100 | 100 (≈ 184 µM) | 0.05 (≈ 0.0919 µM) | 25 (≈ 46 µM) | MIC (Escherichia coli No. 29): 6.25 µg/mL (≈ 11.5 µM); MIC (Morganella morganii Kono): 50 µg/mL (≈ 91.9 µM); MIC [16]: 6.25 µg/mL (≈ 11.5 µM); MIC [17]: 3.13 µg/mL (≈ 5.75 µM); MIC [18]: < 0.025 µg/mL; MIC [19]: 25 µg/mL (≈ 46 µM); MIC [20]: < 0.025 µg/mL; MIC [21]: 3.13 µg/mL (≈ 5.75 µM); T/C (effect of improving incidence of survival) (P-388 tumor cells; dose 0.033 mg/kg intraperitoneally, once a day for consecutive 2 days): 114%; T/C (effect of improving incidence of survival) (P-388 tumor cells; dose 0.13 mg/kg intraperitoneally, once a day for consecutive 2 days): 148%; T/C (effect of improving incidence of survival) (P-388 tumor cells; dose 0.54 mg/kg intraperitoneally, once a day for consecutive 2 days): 128%; T/C (effect of improving incidence of survival) (P-388 tumor cells; dose 2.14 mg/kg intraperitoneally, once a day for consecutive 2 days): 80%
3 | COC(=O)C1(C)Nc2c(O)cc3c(c2C1=O)CC(Cl)CN3C(=O)c1cc2cc(OC)c(OC)c(OC)c2[nH]1 (stereo not shown) [SF2582 B] | 0.05 (≈ 0.0919 µM) | soluble in methanol, ethyl acetate, acetone, chloroform, or dimethyl sufoxide; insoluble in water or haxane | 1 to 2 | > 100 | < 0.025 | 0.05 (≈ 0.0919 µM) | 0.05 (≈ 0.0919 µM) | 25 (≈ 46 µM) | 25 (≈ 46 µM) | 25 (≈ 46 µM) | 25 (≈ 46 µM) | 3.13 (≈ 5.75 µM) | 50 (≈ 91.9 µM) | 25 (≈ 46 µM) | 1.56 (≈ 2.87 µM) | 25 (≈ 46 µM) | 50 (≈ 91.9 µM) | 100 (≈ 184 µM) | 0.1 (≈ 0.184 µM) | 50 (≈ 91.9 µM) | MIC (Escherichia coli No. 29): 12.5 µg/mL (≈ 23 µM); MIC (Morganella morganii Kono): 50 µg/mL (≈ 91.9 µM); MIC [16]: 12.5 µg/mL (≈ 23 µM); MIC [17]: 6.25 µg/mL (≈ 11.5 µM); MIC [18]: < 0.025 µg/mL; MIC [19]: 25 µg/mL (≈ 46 µM); MIC [20]: 0.05 µg/mL (≈ 0.0919 µM); MIC [21]: 6.25 µg/mL (≈ 11.5 µM); T/C (effect of improving incidence of survival) (P-388 tumor cells; dose 0.16 mg/kg intraperitoneally, only once): 117%; T/C (effect of improving incidence of survival) (P-388 tumor cells; dose 0.63 mg/kg intraperitoneally, only once): 159%; T/C (effect of improving incidence of survival) (P-388 tumor cells; dose 2.5 mg/kg intraperitoneally, only once): 159%; T/C (effect of improving incidence of survival) (P-388 tumor cells; dose 10.0 mg/kg intraperitoneally, only once): 80%
